From US9693564B2, “Water based antimicrobial composition using benzalkonium chloride and cocamidopropyl PG-dimonium chloride phosphate” (SAFEHANDS SOLUTIONS, LLC, priority 2011, dated 2017)

Tested on: Staphylococcus aureus
Assay: Antimicrobial effectiveness testing (log reduction of bacteria, 15 seconds exposure)
Format: cell-based
Settings: 15 seconds at 25±1° C., undiluted
Method: The tests were performed on broth cultures that were passed through at least three consecutive daily transfers but no more than ten daily transfers. The broth cultures were diluted with the appropriate broth to obtain an inoculum count of 6×10^8 to 1×10^9 CFU/ml (Mac Farland Standard ˜2.0 to 3.0). The test article was used undiluted. The exposure time and temperature was 15 seconds at 25±1° C., respectively. All tests involving the test article were conducted in triplicate. A 4.95 gram sample of the test article was placed in a sterile, screw-top 50 ml polyethylene tube at 25±1° C. The test article was inoculated with 0.05 ml of the test organism at the appropriate concentration. The tube contents were neutralized by the addition of 45 ml of Neutralizer (Tryptic or Trypticase Soy Broth (TSB) with 10% TWEEN 80, 3% Lecithin, 0.5% Sodium thiosulfate and 0.1% Histidine, pH 7.2±0.1) followed by vortexing. One ml of the neutralized sample (10^−1 dilution) was serially diluted in 10-fold steps to 10^−6 for the test article and to 10^−7 for the numbers control using tubes containing 9 ml of AOAC Neutralizer blanks. An inoculum count was determined by 10-fold serial dilutions to 10^−8 using tubes containing 9 ml of AOAC phosphate buffered dilution water. The dilutions were plated in duplicate on Letheen Agar, and plates were incubated in an inverted position for the appropriate time and at a temperature appropriate for the test organism. The test organism was a single species of Staphylococcus aureus.
Antimicrobial effectiveness was determined by calculating the log reduction of bacteria in the test sample. For comparison, the log reduction for a 0.02% CHX-gluconate solution is 0.5, the log reduction for a 0.13% BAC solution is 0.5, and the log reduction for a 1% cocamidopropyl PG-dimonium chloride phosphate solution is 2. When added together, the total log reduction for the three ingredients tested individually is 3.

## CCCCCCCCCCCC(=O)NCCC[N+](C)(C)CC(O)COP(=O)([O-])OCC(O)C[N+](C)(C)CCCNC(=O)CCCCCCCCCCC.[Cl-].[Cl-].[Na+] (stereo not drawn) [cocamidopropyl PG-dimonium chloride phosphate]
1% solution
  log reduction: 2

## benzalkonium chloride [BAC]
0.13% solution
  log reduction: 0.5

## N=C(NCCCCCCNC(=N)NC(=N)Nc1ccc(Cl)cc1)NC(=N)Nc1ccc(Cl)cc1.O=C(O)[C@H](O)[C@@H](O)[C@H](O)[C@H](O)CO.O=C(O)[C@H](O)[C@@H](O)[C@H](O)[C@H](O)CO [CHX-gluconate, chlorhexidine gluconate]
0.02% solution
  log reduction: 0.5
